Experimental data published in patent US20260317304A1, “TEAD INHIBITORS AND METHODS OF USE” (Sporos BioDiscovery, Inc., priority 2022, published 2026).

Key:
Format in all cases: cell-based
Settings in all cases: 144 hours
SDM103T2 cells = assay: SDM103T2 proliferation and cell viability assay (CTG)
Method: SDM103T2 cells were trypsinised, counted and plated at 800 cells/well in 200 μl of growth media in 96 well flat bottom tissue culture treated plates. The plated cells were incubated overnight at 37° C., 5% CO2 before being treated with compounds in triplicate for each assay point. 50 μl of the serially diluted compound was added to each well giving a final DMSO concentration of 0.5% per well and a total volume of 250 μl per well. The treated cells were incubated for 144 hours (6 days) at 37° C., 5% CO2. Following compound treatment the remaining viable cells were detected using the Promega CellTiter-Glo 2.0 assay as follows: 150 μl of media was removed from each of the wells to be assayed and 100 μl of room temperature CellTiter-Glo 2.0 reagent was added. The plate was placed on an orbital shaker at 500 rpm at room temperature for 2 minutes, and then incubated without shaking for a further 10 minutes at room temperature. 150 μl of cell lysate was removed from each well and dispensed into a single well of a white opaque 96 well plate. Luminescence at 545 nm was read using a BMG CLARIOstar plate reader. The luminescent signal was directly proportional to number of viable cells, the percent of viable cells relative to the DMSO control was then calculated for each assay point. Percent viability relative to DMSO control was plotted against compound concentration and a curve fitted with non-linear regression in GraphPad Prism software. EC50 and absolute IC50 values were calculated using GraphPad Prism software as follows: For EC50 values a non-constrained four-parameter logistic curve fit was used (Sigmoidal, 4PL, X is concentration). For Absolute IC50 values the baseline was constrained to Y=0 and top at 100 (Absolute IC50, X is concentration). Area Under the Curve (AUC): Prism computes area-under-the-curve by the trapezoidal method. The analysis sees a fitted curve as simply a series of connected XY points. Prism simply computes the area under the “curve” defined by connecting the points by straight lines. The units of the AUC are the units of the Y axis times units of the X axis.
(§1) For EC50 data, the symbol “A” indicates a value of less than 0.2 μM; the symbol “B” indicates a value in the range of from 0.2 μM up to 1 μM; and the symbol “C” indicates a value of greater than 1 μM.

Mero82 cells = assay: Mero82 proliferation and cell viability assay (CTG)
Method: Mero 82 cells were trypsinised, counted and plated at 400 cells/well in 200 μl of growth media in 96 well flat bottom tissue culture treated plates. The plated cells were incubated overnight at 37° C., 5% CO2 before being treated with compounds in triplicate for each assay point. 50 μl of the serially diluted compound was added to each well giving a final DMSO concentration of 0.5% per well and a total volume of 250 μl per well. The treated cells were incubated for 144 hours (6 days) at 37° C., 5% CO2. Following compound treatment, the remaining viable cells were detected using the Promega CellTiter-Glo 2.0 assay as follows: 150 μl of media was removed from each of the wells to be assayed and 100 μl of room temperature CellTiter-Glo 2.0 reagent was added. The plate was placed on an orbital shaker at 500 rpm at room temperature for 2 minutes, and then incubated without shaking for a further 10 minutes at room temperature. 150 μl of cell lysate was removed from each well and dispensed into a single well of a white opaque 96 well plate. Luminescence at 545 nm was read using a BMG CLARIOstar plate reader. The luminescent signal was directly proportional to number of viable cells, the percent of viable cells relative to the DMSO control was then calculated for each assay point. Percent viability relative to DMSO control was plotted against compound concentration and a curve fitted with non-linear regression in GraphPad Prism software. EC50 and absolute IC50 values were calculated using GraphPad Prism software as follows: For EC50 values, a non-constrained four-parameter logistic curve fit was used (Sigmoidal, 4PL, X is concentration). For Absolute IC50 values the baseline was constrained to Y=0 and top at 100 (Absolute IC50, X is concentration). Area Under the Curve (AUC): Prism computes area-under-the-curve by the trapezoidal method. The analysis sees a fitted curve as simply a series of connected XY points. Prism simply computes the area under the “curve” defined by connecting the points by straight lines. The units of the AUC are the units of the Y axis times units of the X axis.
as §1

Mero14 cells = assay: Mero14 proliferation and cell viability assay (CTG)
Method: Mero14 cells were trypsinised, counted and plated at 400 cells/well in 200 μl of growth media in 96 well flat bottom tissue culture treated plates. The plated cells were incubated overnight at 37° C., 5% CO2 before being treated with compounds in triplicate for each assay point. 50 μl of the serially diluted compound was added to each well giving a final DMSO concentration of 0.5% per well and a total volume of 250 μl per well. The treated cells were incubated for 144 hours (6 days) at 37° C., 5% CO2. Following compound treatment the remaining viable cells were detected using the Promega CellTiter-Glo 2.0 assay as follows: 150 μl of media was removed from each of the wells to be assayed and 100 μl of room temperature CellTiter-Glo 2.0 reagent was added. The plate was placed on an orbital shaker at 500 rpm at room temperature for 2 minutes, and then incubated without shaking for a further 10 minutes at room temperature. 150 μl of cell lysate was removed from each well and dispensed into a single well of a white opaque 96 well plate. Luminescence at 545 nm was read using a BMG CLARIOstar plate reader. The luminescent signal was directly proportional to number of viable cells, the percent of viable cells relative to the DMSO control was then calculated for each assay point. Percent viability relative to DMSO control is plotted against compound concentration and a curve fitted with non-linear regression in GraphPad Prism software. EC50 and absolute IC50 values were calculated using GraphPad Prism software as follows: For EC50 values, a non-constrained four-parameter logistic curve fit was used (Sigmoidal, 4PL, X is concentration). For Absolute IC50 values the baseline was constrained to Y=0 and top at 100 (Absolute IC50, X is concentration). Area Under the Curve (AUC): Prism computed area-under-the-curve by the trapezoidal method. The analysis sees a fitted curve as simply a series of connected XY points. Prism simply computes the area under the “curve” defined by connecting the points by straight lines. The units of the AUC are the units of the Y axis times units of the X axis.
as §1

## Cn1cnc(-c2cc([C@@]3(C)CCNC3=O)ccc2Nc2ccc(C(F)(F)F)cc2)c1 (single isomer, unassigned) [Compound 5, 3-methyl-3-(3-(1-methyl-1H-imidazol-4-yl)-4-((4-(trifluoromethyl)phenyl)amino)phenyl)pyrrolidin-2-one]
SDM103T2 cells
  EC50: < 0.2 µM
Mero82 cells
  EC50: < 0.2 µM
Mero14 cells
  EC50: < 0.2 µM

## Cn1nnc(-c2cc([C@]3(C)CCNC3=O)ccc2Nc2ccc(C(F)(F)F)cc2)n1 (stereo in doubt) [Compound 20, 3-methyl-3-(3-(2-methyl-2H-tetrazol-5-yl)-4-((4-(trifluoromethyl)phenyl)amino)phenyl) pyrrolidin-2-one]
SDM103T2 cells
  EC50: < 0.2 µM
Mero82 cells
  EC50: < 0.2 µM
Mero14 cells
  EC50: < 0.2 µM

## C=CC(=O)Nc1ccc(C)c(Oc2ccc(Cl)cc2)c1 [Compound 1-3, reference compound]
SDM103T2 cells
  EC50: < 0.2 µM
Mero82 cells
  EC50: < 0.2 µM
Mero14 cells
  EC50: < 0.2 µM

## FC(F)(F)c1ccc(CN2CCC(C3CC(Br)=NO3)CC2)cc1 (stereo not drawn) [Compound 1-2, reference compound]
SDM103T2 cells
  EC50: > 1 µM
Mero82 cells
  EC50: > 1 µM
Mero14 cells
  EC50: 0.2 to 1 µM

## Cn1cnc(-c2cc(C3(C)NC(=O)NC3=O)ccc2Nc2ccc(C(F)(F)F)cc2)c1 (single isomer, unassigned) [Compound 15, 5-methyl-5-(3-(1-methyl-1H-imidazol-4-yl)-4-((4-(trifluoromethyl)phenyl)amino)phenyl)imidazolidine-2,4-dione]
SDM103T2 cells
  EC50: < 0.2 µM
Mero82 cells
  EC50: < 0.2 µM
Mero14 cells
  EC50: < 0.2 µM
